Experimental data taken from patent US6153415A, “Method for producing amide compounds using a nitrile hydratase from a thermophilic bacillus” (priority 1999, dated 2000).

Columns and labels:
BR449 nitrile hydratase = biological target: T1, BR449 nitrile hydratase (Bacillus sp. BR449, UniProt Q9L541+Q9L542); test: Effect of additions during growth on nitrile hydratase activity of BR449; assay type: cell-based; conditions: for Nitrile hydratase Specific Activity: BR449 grown with divalent metal salt 20 mg/l
T1 construct: alpha 214 aa, beta 229 aa
T1 sequence (Q9L541 1-214): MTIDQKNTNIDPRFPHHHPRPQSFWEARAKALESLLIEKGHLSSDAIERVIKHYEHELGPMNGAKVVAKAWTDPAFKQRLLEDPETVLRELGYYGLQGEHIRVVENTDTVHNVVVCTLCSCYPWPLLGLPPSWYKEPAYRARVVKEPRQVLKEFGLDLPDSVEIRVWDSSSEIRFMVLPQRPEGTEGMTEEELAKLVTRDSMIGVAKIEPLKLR
T1 sequence (Q9L542 1-229): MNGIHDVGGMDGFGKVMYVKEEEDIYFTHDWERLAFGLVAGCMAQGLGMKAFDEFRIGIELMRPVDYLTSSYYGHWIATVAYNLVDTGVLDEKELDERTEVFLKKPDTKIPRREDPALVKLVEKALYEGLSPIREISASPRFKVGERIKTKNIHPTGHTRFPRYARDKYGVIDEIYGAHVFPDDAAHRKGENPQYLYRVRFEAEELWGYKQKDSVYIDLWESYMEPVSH
Description: (§1) Bacillus sp. BR449 (ATCC 202119) was grown in OP medium at pH 7.2 which contained per liter: KH2 PO4, 1 g; K2 HPO4, 0.5 g; yeast extract, 1 g; malt extract, 1 g; peptone 2 g; glycerol, 3 g; casamino acids, 0.1 g. The isolate was grown at 60° C. using turbidity to monitor culture density. Divalent metal salts were added to the growth medium where indicated in concentrations of 20 mg/l.
(§2) Nitrile hydratase activity was measured using whole cells in assays containing 20 mg (dry wt) cells, in 1 ml 0.5 M acrylonitrile and potassium phosphate buffer, containing 0.5 M acrylonitrile, pH 7.5. The reaction mixture was incubated in a water bath at 50° C. with shaking for 10 minutes, and the reaction stopped by addition of 0.2 ml 2 N HCl. Acrylamide formation was measured using HPLC by injection into a Novapak C-18 reverse phase column and eluted with 1:12 acetonitrile:5mM potassium phosphate buffer, pH 2.5. Peaks were identified at 200 nm with a Waters (Newton, Mass.) variable wavelength detector and analyzed with reference to chemical standards. One unit of nitrile hydratase activity is defined as the formation of one μmole acrylamide per minute. Amidase activity was measured in the same manner using 0.5 M acrylamide as substrate by measurement of acrylic acid formation.
(§3) Divalent metal ions were added during growth of isolate BR449 to provide indications of metals stimulatory to nitrile hydratase production.

hydratase of BR449 = biological target: T2, hydratase of BR449 (Bacillus sp. BR449, UniProt Q9L541+Q9L542); test: Nitrile hydratase activity with varied acrylonitrile concentration (substrate inhibition); assay type: biochemical; conditions: 10% acrylonitrile, assay at 50° C.
T2 construct: alpha 214 aa, beta 229 aa
T2 sequence (Q9L541 1-214): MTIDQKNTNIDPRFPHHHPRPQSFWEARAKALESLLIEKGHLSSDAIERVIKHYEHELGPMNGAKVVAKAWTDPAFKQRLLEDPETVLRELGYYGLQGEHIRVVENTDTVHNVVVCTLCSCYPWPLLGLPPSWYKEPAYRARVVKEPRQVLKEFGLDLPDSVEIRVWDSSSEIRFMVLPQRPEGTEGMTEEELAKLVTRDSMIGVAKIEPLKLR
T2 sequence (Q9L542 1-229): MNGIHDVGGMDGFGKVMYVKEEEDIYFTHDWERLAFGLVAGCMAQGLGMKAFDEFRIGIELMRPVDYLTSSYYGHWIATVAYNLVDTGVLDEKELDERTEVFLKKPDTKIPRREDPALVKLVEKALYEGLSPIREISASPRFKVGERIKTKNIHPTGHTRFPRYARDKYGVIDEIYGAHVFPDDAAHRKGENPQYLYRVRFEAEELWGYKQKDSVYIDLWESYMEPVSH
Description: as §2, with “Nitrile hydratase activity was measured using whole cells in assays containing 20 mg (dry wt) cells, in 1 ml 0.5 M acrylonitrile and potassium phosphate buffer, containing 0.5 M acrylonitrile, pH 7.5.” left out

Bacillus sp. BR449 = test: Effect of metal ions on growth (total cells) of BR449; assay type: cell-based; conditions: divalent metal salt 20 mg/l in growth medium
Description: as §1

amidase = test: Effect of metal ions during growth on amidase activity of BR449; assay type: cell-based, Bacillus sp. BR449; conditions: BR449 grown with divalent metal salt 20 mg/l
Description: as §1, §2, §3

[1] = Enzyme stability study, whole cells incubated in buffer at varied temperatures; assay type: physicochemical, Bacillus sp. BR449; conditions: two hour incubations in buffer, assay at 50° C.
Description: For studies of nitrile hydratase stability, whole cells of BR449 were incubated at varied temperatures in 50 mM potassium phosphate buffer, pH 7.5, following which the nitrile hydratase assay was carried out at 50° C.

Molecule	Induction of hydratase activity (BR449 nitrile hydratase; addition during BR449 growth)	inhibition of BR449 hydratase (substrate inhibition) (hydratase of BR449) [%]	Total Cells (Bacillus sp. BR449)	Nitrile hydratase Specific Activity (BR449 nitrile hydratase) [U/mg]	Amidase Specific Activity (amidase) [U/mg]	temperature to which the enzyme is stable [1] [°C]
C=CC#N [acrylonitrile]	without effect	47	–	–	–	–
[Fe+2] [Fe^2+]	–	–	490 mt/1, dry weight	4.3	2.3	–
[Ni+2] [Ni^2+]	–	–	80 mt/1, dry weight	6.8	3.4	–
[Co+2] [Co^2+]	–	–	225 mt/1, dry weight	71.5	9.7	–
[Mn+2] [Mn^2+]	–	–	65 mt/1, dry weight	2.2	2.1	–
[Cu+2] [Cu^2+]	–	–	90 mt/1, dry weight	1.9	1.5	–
BR449 nitrile hydratase: cobalt-containing nitrile hydratase of Bacillus sp. BR449, alpha subunit SEQ ID NO:9, beta subunit SEQ ID NO:11 (protein) alpha: MTIDQKNTNIDPRFPHHHPRPQSFWEARAKALESLLIEKGHLSSDAIERVIKHYEHELGPMNGAKVVAKAWTDPAFKQRLLEDPETVLRELGYYGLQGEHIRVVENTDTVHNVVVCTLCSCYPWPLLGLPPSWYKEPAYRARVVKEPRQVLKEFGLDLPDSVEIRVWDSSSEIRFMVLPQRPEGTEGMTEEELAKLVTRDSMIGVAKIEPLKLR beta: MNGIHDVGGMDGFGKVMYVKEEEDIYFTHDWERLAFGLVAGCMAQGLGMKAFDEFRIGIELMRPVDYLTSSYYGHWIATVAYNLVDTGVLDEKELDERTEVFLKKPDTKIPRREDPALVKLVEKALYEGLSPIREISASPRFKVGERIKTKNIHPTGHTRFPRYARDKYGVIDEIYGAHVFPDDAAHRKGENPQYLYRVRFEAEELWGYKQKDSVYIDLWESYMEPVSH	–	–	–	–	–	≤ 60
